What was measured:
S. aureus DSM 20231 [1] = experiment: fitness (endpoint OD595 vs no drug) (fraction); higher = more growth
Method in brief: (§1)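 With the first reading as background, OD595 was measured every 30 min for 14 h in 384-well plates kept at 37 °C and inoculated at OD595 0.01. TSB, LB Lennox or CY was the medium. Fitness is the optical density at the transition into stationary phase divided by the robust mean of no-drug control wells, with a cap of 1.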

S. aureus Newman [2] = experiment: as above
Method in brief: as §1

S. pneumoniae D39V [3] = experiment: as above
Method in brief: as §1

B. subtilis 168 = experiment: Bliss interaction score (quartile over a dose matrix) (fitness difference); higher = more antagonism (negative = synergy)
Method in brief: (§2)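 Quartiles summarise the Bliss score over technical, biological and donor/recipient replicates, where the score is observed minus expected fitness under a product model. Expected fitness uses single-drug values inferred from combination data. Fitness is OD595 at entry into stationary phase over the plate's robust no-drug mean, capped at 1.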

S. aureus DSM 20231 [4] = experiment: as above
Method in brief: as §2

S. aureus Newman [5] = experiment: as above
Method in brief: as §2

S. pneumoniae D39V [6] = experiment: as above
Method in brief: as §2

[7] = first compound 0.078 µg/mL, partner 0.0625 µg/mL
[8] = first compound 0.078 µg/mL, partner 0.125 µg/mL
[9] = first compound 0.078 µg/mL, partner 0.25 µg/mL
[10] = first compound 0.156 µg/mL, partner 0.0625 µg/mL
[11] = first compound 0.156 µg/mL, partner 0.125 µg/mL
[12] = first compound 0.156 µg/mL, partner 0.25 µg/mL
[13] = first compound 0.312 µg/mL, partner 0.0625 µg/mL
[14] = first compound 0.312 µg/mL, partner 0.125 µg/mL
[15] = first compound 0.312 µg/mL, partner 0.25 µg/mL
[16] = first compound 0.625 µg/mL, partner 0.1875 µg/mL
[17] = first compound 0.625 µg/mL, partner 0.375 µg/mL
[18] = first compound 0.625 µg/mL, partner 0.75 µg/mL
[19] = first compound 1.25 µg/mL, partner 0.1875 µg/mL
[20] = first compound 1.25 µg/mL, partner 0.375 µg/mL
[21] = first compound 1.25 µg/mL, partner 0.75 µg/mL
[22] = first compound 2.5 µg/mL, partner 0.1875 µg/mL
[23] = first compound 2.5 µg/mL, partner 0.375 µg/mL
[24] = first compound 2.5 µg/mL, partner 0.75 µg/mL
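Throughout, for Bliss interaction score (quartile over a dose matrix): first quartile when negative (synergy) and third quartile when positive (antagonism).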

`CO/N=C(\C(=O)N[C@@H]1C(=O)N2C(C(=O)O)=C(COC(C)=O)CS[C@H]12)c1csc(N)n1` [Cefotaxime] + Cn1nnc(-c2ccc(-c3ccc(N4C[C@H](CO)OC4=O)cc3F)cn2)n1 [Tedizolid] showed a fitness (S. aureus DSM 20231 [1]; first compound 0.039 µg/mL, partner 0.0625 µg/mL, one replicate) of 0.806, a fitness (S. aureus DSM 20231 [1]; first compound 0.039 µg/mL, partner 0.125 µg/mL, one replicate) of 0.762 and a fitness (S. aureus DSM 20231 [1]; first compound 0.039 µg/mL, partner 0.25 µg/mL, one replicate) of 0.643. It also gave a fitness (S. aureus DSM 20231 [1]; [7]) of 0.767, a fitness (S. aureus DSM 20231 [1]; [8]) of 0.718 and a fitness (S. aureus DSM 20231 [1]; [9]) of 0.532. For the same compound, the fitness (S. aureus DSM 20231 [1]; [10]) was 0.761, the fitness (S. aureus DSM 20231 [1]; [11]) was 0.608 and the fitness (S. aureus DSM 20231 [1]; [12]) was 0.509. The fitness (S. aureus DSM 20231 [1]; [13]) was 0.691, the fitness (S. aureus DSM 20231 [1]; [14]) was 0.602 and the fitness (S. aureus DSM 20231 [1]; [15]) was 0.448. It also gave a fitness (S. aureus Newman [2]; [7]) of 0.592, a fitness (S. aureus Newman [2]; [8]) of 0.475 and a fitness (S. aureus Newman [2]; [9]) of 0.217. It also gave a fitness (S. aureus Newman [2]; [10]) of 0.455, a fitness (S. aureus Newman [2]; [11]) of 0.338 and a fitness (S. aureus Newman [2]; [12]) of 0.0974. For the same compound, the fitness (S. aureus Newman [2]; [13]) was 0.232, the fitness (S. aureus Newman [2]; [14]) was 0.145 and the fitness (S. aureus Newman [2]; [15]) was 0.0726. The fitness (S. aureus Newman [2]; first compound 0.625 µg/mL, partner 0.0625 µg/mL) was 0.0654, the fitness (S. aureus Newman [2]; first compound 0.625 µg/mL, partner 0.125 µg/mL) was 0.0082 and the fitness (S. aureus Newman [2]; first compound 0.625 µg/mL, partner 0.25 µg/mL) was 0.0399. For the same compound, the fitness (S. aureus Newman [2]; first compound 1.25 µg/mL, partner 0.0625 µg/mL) was 0.021, the fitness (S. aureus Newman [2]; first compound 1.25 µg/mL, partner 0.125 µg/mL) was 0.0172 and the fitness (S. aureus Newman [2]; first compound 1.25 µg/mL, partner 0.25 µg/mL) was 0.03. For the same compound, the fitness (S. aureus Newman [2]; first compound 2.5 µg/mL, partner 0.0625 µg/mL) was 0.0122, the fitness (S. aureus Newman [2]; first compound 2.5 µg/mL, partner 0.125 µg/mL) was 0.0108 and the fitness (S. aureus Newman [2]; first compound 2.5 µg/mL, partner 0.25 µg/mL) was 0.0325. For the same compound, the fitness (S. pneumoniae D39V [3]; first compound 0.0018 µg/mL, partner 0.03125 µg/mL) was 0.968, the fitness (S. pneumoniae D39V [3]; first compound 0.0018 µg/mL, partner 0.0625 µg/mL) was 0.969 and the fitness (S. pneumoniae D39V [3]; first compound 0.0018 µg/mL, partner 0.125 µg/mL) was 0.844. For the same compound, the fitness (S. pneumoniae D39V [3]; first compound 0.0018 µg/mL, partner 0.25 µg/mL) was 0.482, the fitness (S. pneumoniae D39V [3]; first compound 0.0018 µg/mL, partner 0.5 µg/mL) was 0.172 and the fitness (S. pneumoniae D39V [3]; first compound 0.0035 µg/mL, partner 0.03125 µg/mL) was 0.953. For the same compound, the fitness (S. pneumoniae D39V [3]; first compound 0.0035 µg/mL, partner 0.0625 µg/mL) was 0.972, the fitness (S. pneumoniae D39V [3]; first compound 0.0035 µg/mL, partner 0.125 µg/mL) was 0.847 and the fitness (S. pneumoniae D39V [3]; first compound 0.0035 µg/mL, partner 0.25 µg/mL) was 0.468. The fitness (S. pneumoniae D39V [3]; first compound 0.0035 µg/mL, partner 0.5 µg/mL) was 0.14, the fitness (S. pneumoniae D39V [3]; first compound 0.007 µg/mL, partner 0.03125 µg/mL) was 0.95 and the fitness (S. pneumoniae D39V [3]; first compound 0.007 µg/mL, partner 0.0625 µg/mL) was 0.958. For the same compound, the fitness (S. pneumoniae D39V [3]; first compound 0.007 µg/mL, partner 0.125 µg/mL) was 0.812, the fitness (S. pneumoniae D39V [3]; first compound 0.007 µg/mL, partner 0.25 µg/mL) was 0.427 and the fitness (S. pneumoniae D39V [3]; first compound 0.007 µg/mL, partner 0.5 µg/mL) was 0.104. For the same compound, the Bliss interaction score (B. subtilis 168) was 0.0923, the Bliss interaction score (S. aureus DSM 20231 [4]) was 0.114 and the Bliss interaction score (S. aureus Newman [5]) was -0.105. It also gave a Bliss interaction score (S. pneumoniae D39V [6]) of 0.0955.

Compound `COc1cccc2c1C(=O)c1c(O)c3c(c(O)c1C2=O)C[C@@](O)(C(=O)CO)C[C@@H]3O[C@H]1C[C@H](N)[C@H](O)[C@H](C)O1` [Doxorubicin] + CN[C@H](CC(C)C)C(=O)N[C@H]1C(=O)N[C@@H](CC(N)=O)C(=O)N[C@H]2C(=O)N[C@H]3C(=O)N[C@H](C(=O)N[C@H](C(=O)O)c4cc(O)cc(O)c4-c4cc3ccc4O)[C@H](O)c3ccc(c(Cl)c3)Oc3cc2cc(c3O[C@@H]2O[C@H](CO)[C@@H](O)[C@H](O)[C@H]2O[C@H]2C[C@](C)(N)[C@H](O)[C@H](C)O2)Oc2ccc(cc2Cl)[C@H]1O [Vancomycin] has a fitness (S. aureus DSM 20231 [1]; [16]) of 0.843, a fitness (S. aureus DSM 20231 [1]; [17]) of 0.869 and a fitness (S. aureus DSM 20231 [1]; [18]) of 0.888. The fitness (S. aureus DSM 20231 [1]; [19]) was 0.84, the fitness (S. aureus DSM 20231 [1]; [20]) was 0.927 and the fitness (S. aureus DSM 20231 [1]; [21]) was 0.894. The fitness (S. aureus DSM 20231 [1]; [22]) was 0.787, the fitness (S. aureus DSM 20231 [1]; [23]) was 0.952 and the fitness (S. aureus DSM 20231 [1]; [24]) was 0.907. The fitness (S. aureus Newman [2]; [16]) was 0.849, the fitness (S. aureus Newman [2]; [17]) was 0.825 and the fitness (S. aureus Newman [2]; [18]) was 0.851. It also gave a fitness (S. aureus Newman [2]; [19]) of 0.823, a fitness (S. aureus Newman [2]; [20]) of 0.814 and a fitness (S. aureus Newman [2]; [21]) of 0.794. It also gave a fitness (S. aureus Newman [2]; [22]) of 0.764, a fitness (S. aureus Newman [2]; [23]) of 0.745 and a fitness (S. aureus Newman [2]; [24]) of 0.731. It also gave a fitness (S. pneumoniae D39V [3]; first compound 0.25 µg/mL, partner 0.03125 µg/mL) of 0.92, a fitness (S. pneumoniae D39V [3]; first compound 0.25 µg/mL, partner 0.0625 µg/mL) of 0.851 and a fitness (S. pneumoniae D39V [3]; first compound 0.25 µg/mL, partner 0.125 µg/mL) of 0.88. The fitness (S. pneumoniae D39V [3]; first compound 0.25 µg/mL, partner 0.5 µg/mL) was 0.0816, the fitness (S. pneumoniae D39V [3]; first compound 0.5 µg/mL, partner 0.03125 µg/mL) was 0.924 and the fitness (S. pneumoniae D39V [3]; first compound 0.5 µg/mL, partner 0.0625 µg/mL) was 0.898. For the same compound, the fitness (S. pneumoniae D39V [3]; first compound 0.5 µg/mL, partner 0.125 µg/mL) was 0.913, the fitness (S. pneumoniae D39V [3]; first compound 0.5 µg/mL, partner 0.5 µg/mL) was 0.0725 and the fitness (S. pneumoniae D39V [3]; first compound 1 µg/mL, partner 0.03125 µg/mL) was 0.865. It also gave a fitness (S. pneumoniae D39V [3]; first compound 1 µg/mL, partner 0.0625 µg/mL) of 0.8, a fitness (S. pneumoniae D39V [3]; first compound 1 µg/mL, partner 0.25 µg/mL) of 0.377 and a fitness (S. pneumoniae D39V [3]; first compound 1 µg/mL, partner 0.5 µg/mL) of 0.0604. For the same compound, the Bliss interaction score (B. subtilis 168) was -0.0982, the Bliss interaction score (S. aureus DSM 20231 [4]) was -0.0449 and the Bliss interaction score (S. aureus Newman [5]) was -0.0426. It also gave a Bliss interaction score (S. pneumoniae D39V [6]) of 0.048.

Reference: the supplement of paper PMC10627819
